Source: patent publication US20020137929A1, “1 - (3-heterocyclylphenyl) isothiourea, -isourea, -guanidine and -amidine herbicidal agents” (Intellectual Property Department, BASF Aktiengesellschaft, priority 1998, published 2002)

Legend:
[1] = tested on: ABUTH (Velvetleaf); test: Postemergence herbicidal evaluation; type: in vivo, Abutilon theophrasti; settings: postemergence
Procedure, shortened: (§1)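 Rate range approx. 0.0156–0.500 kg/ha. Foliar application at 40 psi to ~2-week seedlings; surfactant 0.5% TWEEN 20 in 50/50 acetone/water. Evaluation 4–5 wk post-treatment by 0–9 visual injury score, means of replicate tests.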

[2] = tested on: GALAP (Galium); test: Postemergence herbicidal evaluation; type: in vivo, Galium aparine; settings: postemergence
Procedure, shortened: as §1

[3] = tested on: GALAP (Galium); test: Preemergence herbicidal evaluation; type: in vivo, Galium aparine; settings: rated 4-5 weeks after treatment
Procedure, shortened: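 Seeds were mixed with potting soil and planted on about one inch of soil, then sprayed with test compound in aqueous acetone at about 0.0156 to 0.500 kg per hectare. Plants grew under standard greenhouse care and were visually rated 0-9 against untreated controls 4-5 weeks post-treatment.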

[4] = rate 0.0313 kg/ha, rating scale 0-9
[5] = rate 0.0625 kg/ha, rating scale 0-9
[6] = rate 0.1250 kg/ha, rating scale 0-9
[7] = rate 0.2500 kg/ha, rating scale 0-9
[8] = rate 0.0156 kg/ha, rating scale 0-9

Row | SMILES | Herbicidal rating ABUTH ([1]; rate 0.0156 kg/ha) | Herbicidal rating ABUTH ([1]; rate 0.0313 kg/ha) | Herbicidal rating ABUTH ([1]; rate 0.0625 kg/ha) | Herbicidal rating ABUTH ([1]; rate 0.1250 kg/ha) | Herbicidal rating GALAP ([2]; rate 0.0156 kg/ha) | Herbicidal rating GALAP ([2]; rate 0.0313 kg/ha) | Herbicidal rating GALAP ([2]; rate 0.0625 kg/ha) | Herbicidal rating GALAP ([2]; rate 0.1250 kg/ha) | Preemergence herbicidal rating GALAP ([3]; rate 0.0156 kg/ha) | Preemergence herbicidal rating GALAP ([3]; rate 0.0313 kg/ha) | Preemergence herbicidal rating GALAP ([3]; rate 0.0625 kg/ha) | Preemergence herbicidal rating GALAP ([3]; rate 0.1250 kg/ha) | Preemergence herbicidal rating GALAP ([3]; rate 0.2500 kg/ha) | Preemergence herbicidal rating GALAP ([3]; rate 0.5000 kg/ha) | Preemergence herbicidal rating GALAP [3, 4] | Preemergence herbicidal rating GALAP [3, 5] | Preemergence herbicidal rating GALAP [3, 6] | Preemergence herbicidal rating GALAP [3, 7] | Preemergence herbicidal rating GALAP [3, 8]
1 | Cn1c(C(F)(F)F)cc(=O)n(-c2cc(N=C3SCC(=O)N3CC(=O)OCC3CCCCC3)c(Cl)cc2F)c1=O [Compound 123, Cyclohexylmethyl 2-{{2-chloro-5-[3,6-dihydro-3-methyl-2,6-dioxo-4-(trifluoromethyl)-1(2H)-pyrimidinyl]-4-fluorophenyl}imino}-4-oxo-3-thiazolidineacetate] | 9.0 | 9.0 | 9.0 | 9.0 | 2.0 | 4.0 | 6.0 | 7.0 | 2.0 | 3.0 | 3.0 | 7.0 | 6.0 | 9.0 |  |  |  |  | 
2 | CCOC(=O)CN1C(=O)C(C(=O)OC)SC1=Nc1cc(-n2c(=O)cc(C(F)(F)F)n(C)c2=O)c(F)cc1Cl (centres unmarked) [Compound 128, 5-Carboxy-2-{{2-chloro-5-[3,6-dihydro-3-methyl-2,6-dioxo-4-(trifluoromethyl)-1(2H)-pyrimidinyl]-4-fluorophenyl}imino}-4-oxo-3-thiazolidineacetic acid, 3-ethyl methyl ester] | 6.0 | 9.0 | 9.0 |  | 1.0 | 1.0 | 3.0 |  | 0.0 | 0.0 | 0.0 | 1.0 | 1.0 |  |  |  |  |  | 
3 | Cc1ccccc1CN1C(=O)CSC1=Nc1cc(-n2c(=O)cc(C(F)(F)F)n(C)c2=O)c(F)cc1Cl [Compound 129, 3-{4-Chloro-2-fluoro-5-{[3-(o-methylbenzyl)-4-oxo-2-thiazolidinylidene]amino}phenyl}-1-methyl-6-(trifluoromethyl)-2,4 (1H,3H)-pyrimidinedione] | 9.0 | 9.0 | 9.0 |  | 2.0 | 4.0 | 4.0 |  | 1.0 | 1.0 | 1.0 | 0.0 | 0.0 |  |  |  |  |  | 
4 | Cn1c(C(F)(F)F)cc(=O)n(-c2cc(N=C3SCC(=O)N3Cc3ccccn3)c(Cl)cc2F)c1=O [Compound 131] | 7.0 | 9.0 | 9.0 |  | 1.0 | 3.0 | 3.0 |  |  |  |  |  |  |  | 0.0 | 3.0 | 2.0 | 9.0 | 
5 | Cn1c(C(F)(F)F)cc(=O)n(-c2cc(N=C3SCC(=O)N3Cc3cccnc3)c(Cl)cc2F)c1=O [Compound 132, 3-{4-Chloro-2-fluoro-5-{[4-oxo-3-(3-pyridylmethyl)-2-thiazolidinylidene]amino}phenyl}-1-methyl-6-(trifluoromethyl)-2,4 (1H,3H)-pyrimidinedione] | 9.0 | 9.0 | 9.0 |  | 2.0 | 2.0 | 3.0 |  |  |  |  |  |  |  |  | 4.0 | 4.0 | 5.0 | 
6 | Cn1c(C(F)(F)F)cc(=O)n(-c2cc(N=C3SCC(=O)N3Cc3ccncc3)c(Cl)cc2F)c1=O [Compound 133, 3-{4-Chloro-2-fluoro-5-{[4-oxo-3-(4-pyridylmethyl)-2-thiazolidinylidene]amino}phenyl}-1-methyl-6-(trifluoromethyl)-2,4(1H,3H)-pyrimidinedione] | 9.0 | 9.0 | 9.0 |  | 0.0 | 2.0 | 3.0 |  |  |  |  |  |  |  | 0.0 | 0.0 | 0.0 | 0.0 | 
7 | Cn1c(C(F)(F)F)cc(=O)n(-c2cc(N=C3SCC(=O)N3Cc3cccc(Cl)c3)c(Cl)cc2F)c1=O [Compound 136, 3-{4-Chloro-5-{[3-(m-chlorobenzyl)-4-oxo-2-thiazolidinylidene]amino}-2-fluorophenyl}-1-methyl-6-(trifluoromethyl)-2,4(1H,3H)-pyrimidinedione] | 9.0 | 9.0 | 9.0 |  | 1.0 | 2.0 | 3.0 |  |  |  |  |  |  |  | 0.0 | 1.0 | 2.0 | 3.0 | 0.0
8 | COc1cc(CN2C(=O)CSC2=Nc2cc(-n3c(=O)cc(C(F)(F)F)n(C)c3=O)c(F)cc2Cl)cc(OC)c1OC [Compound 140, 3-{4-Chloro-2-fluoro-5-{[3-(3,4,5-trimethoxybenzyl)-4-oxo-2-thiazolidinylidene]amino}phenyl}-1-methyl-6-(trifluoromethyl)-2,4(1H,3H)-pyrimidinedione] | 4.0 | 4.0 | 9.0 |  | 0.0 | 0.0 | 2.0 |  |  |  |  |  |  |  |  | 0.0 | 0.0 | 0.0 | 
9 | Cn1c(C(F)(F)F)cc(=O)n(-c2cc(N=C3SCC(=O)N3Cc3ccc(Cl)c(Cl)c3)c(Cl)cc2F)c1=O [Compound 144, 3-{4-Chloro-5-{[3-(3,4-dichlorobenzyl)-4-oxo-2-thiazolidinylidene]amino}-2-fluorophenyl}-1-methyl-6-(trifluoromethyl)-2,4(1H,3H)-pyrimidinedione] | 9.0 | 9.0 | 9.0 |  | 3.0 | 3.0 | 4.0 |  |  |  |  |  |  |  | 1.0 | 1.0 | 2.0 | 2.0 | 1.0
10 | Cc1cc(C)cc(CN2C(=O)CSC2=Nc2cc(-n3c(=O)cc(C(F)(F)F)n(C)c3=O)c(F)cc2Cl)c1 [Compound 146, 3-{4-Chloro-5-{[3-(3,5-dimethylbenzyl)-4-oxo-2-thiazolidinylidene]amino}-2-fluorophenyl}-1-methyl-6-(trifluoromethyl)-2,4(1H,3H)-pyrimidinedione] | 9.0 | 9.0 | 9.0 |  | 2.0 | 2.0 | 4.0 |  |  |  |  |  |  |  | 0.0 | 0.0 | 2.0 | 2.0 | 1.0
11 | Cn1c(C(F)(F)F)cc(=O)n(-c2cc(N=C3SCC(=O)N3Cc3cc(Cl)cc(Cl)c3)c(Cl)cc2F)c1=O [Compound 150, 3-{4-Chloro-5-{[3-(3,5-dichlorobenzyl)-4-oxo-2-thiazolidinylidene]amino}-2-fluorophenyl}-1-methyl-6-(trifluoromethyl)-2,4(1H,3H)-pyrimidinedione] | 9.0 | 9.0 | 9.0 |  | 1.0 | 2.0 | 4.0 |  |  |  |  |  |  |  | 0.0 | 0.0 | 0.0 | 2.0 | 
12 | Cn1c(C(F)(F)F)cc(=O)n(-c2cc(N=C3SCC(=O)N3Cc3ccc(F)cc3)c(Cl)cc2F)c1=O [Compound 151, 3-{4-Chloro-2-fluoro-5-{[3-(p-fluorobenzyl)-4-oxo-2-thiazolidinylidene]amino}phenyl}-1-methyl-6-(trifluoromethyl)-2,4(1H,3H)-pyrimidinedione] | 9.0 | 9.0 | 9.0 |  | 4.0 | 4.0 | 6.0 |  |  |  |  |  |  |  | 4.0 | 4.0 | 9.0 | 9.0 | 2.0
